Assay results published in the supplement of paper PMC10307832.

Key:
Assay in all cases: relative viability (nuclei count vs DMSO), 5 days (fraction); higher = more cells survive
[1] = compound: CN(C/C=C/C1=CC=C(C=C1)Cl)CC2=CC=CC=C2N(CCO)S(=O)(=O)C3=CC=C(C=C3)OC [KN-93]
Method in brief: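 Only plates meeting two conditions passed: control CV below 25% and at least one doubling. Lung cancer cell lines, kept overnight at 37 °C in 1536-well plates, were pinned with five library-drug doses (not always all listed) √10 apart on vehicle-anchored plates and grown 5 days without medium change. A one-step fix, permeabilisation and Hoechst stain preceded 4× imaging and MetaXpress nuclear counting. Viability equals treated-well nuclei divided by vehicle-well nuclei, as the median over plates.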

[2] = compound: CN(C/C=C/C1=CC=C(C=C1)Cl)CC2=CC=CC=C2N(CCO)S(=O)(=O)C3=CC=C(C=C3)OC [KN-93] + Cc1nc(Nc2ncc(C(=O)Nc3c(C)cccc3Cl)s2)cc(N2CCN(CCO)CC2)n1 [Dasatinib] (partner 0.075 µM)
Method in brief: (§1)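 The day after seeding in 1536-well plates, lung cancer cell lines were treated by pin tool with a single drug, or with a fixed anchor-drug dose together with five library-drug doses (not always all listed) in √10 steps. After 5 days, a combined fix-and-stain solution (final 0.05% Triton X-100, 1% formaldehyde, 1 ug/ml Hoechst) was added. Nuclei counted on 4× images gave relative viability as treated counts over vehicle counts, reported as the median of duplicate plates.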

[3] = compound: CN(C/C=C/C1=CC=C(C=C1)Cl)CC2=CC=CC=C2N(CCO)S(=O)(=O)C3=CC=C(C=C3)OC [KN-93] + O=C(CCCCCCC(=O)Nc1ccccc1)NO [Vorinostat] (partner 1 µM)
Method in brief: as §1

[4] = compound: CN(C/C=C/C1=CC=C(C=C1)Cl)CC2=CC=CC=C2N(CCO)S(=O)(=O)C3=CC=C(C=C3)OC [KN-93] + CS(=O)(=O)CCNCc1ccc(-c2ccc3ncnc(Nc4ccc(OCc5cccc(F)c5)c(Cl)c4)c3c2)o1 [Lapatinib] (partner 2 µM)
Method in brief: as §1

[5] = compound: CN(C/C=C/C1=CC=C(C=C1)Cl)CC2=CC=CC=C2N(CCO)S(=O)(=O)C3=CC=C(C=C3)OC [KN-93] + CC1(C)CCC(c2ccc(Cl)cc2)=C(CN2CCN(c3ccc(C(=O)NS(=O)(=O)c4ccc(N[C@H](CCN5CCOCC5)CSc5ccccc5)c(S(=O)(=O)C(F)(F)F)c4)cc3)CC2)C1 [Navitoclax] (partner 0.5 µM)
Method in brief: as §1

Row | Cell Line | relative viability ([1]; 0.08 µM) | relative viability ([1]; 0.253 µM) | relative viability ([1]; 2.53 µM) | relative viability ([1]; 8 µM) | relative viability ([2]; first compound 0.08 µM) | relative viability ([2]; first compound 0.253 µM) | relative viability ([2]; first compound 2.53 µM) | relative viability ([2]; first compound 8 µM) | relative viability ([3]; first compound 0.08 µM) | relative viability ([3]; first compound 0.253 µM) | relative viability ([3]; first compound 2.53 µM) | relative viability ([3]; first compound 8 µM) | relative viability ([4]; first compound 0.08 µM) | relative viability ([4]; first compound 0.253 µM) | relative viability ([4]; first compound 2.53 µM) | relative viability ([4]; first compound 8 µM) | relative viability ([5]; first compound 0.08 µM) | relative viability ([5]; first compound 0.253 µM) | relative viability ([5]; first compound 2.53 µM) | relative viability ([5]; first compound 8 µM)
1 | NCI-H2023 | 0.906 | 1.01 | 1.08 | 0.534 | 0.494 | 0.472 | 0.647 | 0.244 | 0.636 | 0.67 | 0.763 | 0.551 | 0.804 | 0.858 | 0.932 | 0.239 | 1 | 1.22 | 1.05 | 0.789
2 | NCI-H1792 | 0.783 | 0.83 | 0.948 | 0.703 | 0.651 | 0.681 | 0.973 | 0.633 | – | – | – | – | – | 0.904 | 1.67 | 0.818 | – | 0.705 | 0.75 | 0.492
3 | NCI-H1703 | 0.871 | 0.89 | 0.841 | 0.459 | – | – | – | – | – | – | – | – | 1.06 | 1.41 | 1.03 | 0.265 | 0.936 | 1.11 | 1.04 | 0.179
4 | NCI-H650 | 1.01 | 1.1 | 1.11 | 0.598 | 0.465 | 0.526 | 0.417 | 0.355 | 0.495 | 0.422 | 0.544 | 0.346 | 1.19 | 1.04 | 1.29 | 0.615 | – | – | – | –
5 | ABC-1 | 0.999 | 0.99 | 0.773 | 0.312 | 0.585 | 0.476 | 0.468 | 0.203 | 0.92 | 1.66 | 0.586 | 0.427 | 0.92 | 1.64 | 1.18 | 1.05 | – | – | – | –
6 | NCI-H1563 | 0.967 | 0.936 | 0.88 | 0.758 | 0.473 | 0.415 | 0.471 | 0.377 | – | – | – | – | 0.946 | 1 | 0.937 | 0.641 | – | – | – | –
7 | NCI-H522 | 1.04 | 0.986 | 1.04 | 0.783 | 0.825 | 0.949 | 0.846 | 0.695 | 0.886 | 0.966 | 0.857 | 0.858 | – | – | – | – | – | – | – | –
8 | NCI-H441 | 0.709 | 1.14 | 1.3 | 0.731 | 0.758 | 0.639 | 0.617 | 0.458 | – | 1.06 | 0.864 | 0.498 | – | – | – | – | – | 0.573 | 0.747 | 0.238
9 | HCC-44 | 1.02 | 0.912 | 1.12 | 0.764 | – | – | – | – | 1.13 | 1.1 | 1.12 | 0.915 | 0.946 | 0.945 | 1.28 | 0.81 | 0.852 | 0.892 | 0.951 | 0.752
10 | SW 900 | 0.9 | 0.704 | 1 | 0.508 | 0.609 | 0.568 | 0.65 | 0.48 | 0.592 | 0.333 | 0.624 | 0.192 | – | – | – | – | – | – | – | –
